# Tests used:
# cultured neurons = test: axonal development in cultured neurons (Tau-1 labelling); type: cell-based, rat
# Protocol: (§1) For biochemical studies, neurons were seeded in six-well culture plates with a density of 7.5×10^5 cells per well. For LDH assay and cell death detection, 24-well culture plates were used with a neuron density of 2.5×10^5 cells per well. Neurons of 14-17 days in vitro (DIV) were used for experiments. […] HEK 293 cells were maintained in DMEM (Invitrogen™) supplemented with 10% fetal bovine serum and 1% penicillin/streptomycin. For protein expression in cell lines, cells were transfected with Calcium Phosphate Transfection reagent (Promega™, San Luis Obispo, Calif., USA) and used 24 h later as described previously (Yang et al., 2009). The JNK inhibitor, L-JNKI, was purchased from Alexis Biochemicals™ (San Diego, Calif.). Thrombin was obtained from BIOPUR™ (Bubendorf, Switzerland). Other assay reagents without indication were obtained from Sigma™.
# Cultured hippocampal neurons on glass coverslips were used for immunostaining. After treatments indicated in the text, neurons were fixed with 2% paraformaldehyde for 3 min at room temperature followed by permeabilization with ice-cold methanol for 10 min at −20° C. The coverslips were then washed three times with PBS and immunostained with appropriate antibodies dissolved in PBS for 1 h at room temperature. After washing three times with PBS, coverslips were incubated with Alexa-labeled secondary antibodies from Invitrogen for an additional 1 h. For mitochondrial detection, neuronal cultures were incubated at 37° C. for 30 min with 2 μM MitoTracker-TR (Invitrogen™). Coverslips were then fixed and mounted with ProLong Gold Antifade Reagent (Invitrogen™). Fluorescence was captured using a Zeiss Observer Z1™ microscope and all images were analyzed with ImageJ™ and processed using Adobe Photoshop™.
# zD17-JNK3 interaction = zD17-JNK3 interaction (Rattus norvegicus, UniProt P49187); test: co-immunoprecipitation of zD17 with JNK3 in cortical neuronal cultures; type: cell-based; parameters: diminished the co-immunoprecipitation of zD17 with JNK3; endogenous in cells; host or cells: primary cortical neurons of embryonic (E18-19) Wistar rat; conditions: for zD17-JNK3 interaction (co-immunoprecipitation), baseline: no NMDA
# Protocol: (§2) All animal experiments were approved by the Animal Care Committee of the University of British Columbia. Primary cortical cultures were prepared from Wistar rat (UBC Animal Care Centre, Vancouver, BC, Canada) brains at embryonic days 18-19. Cultures were maintained in Neurobasal medium supplemented with B27 and 0.5 mM glutamax (Invitrogen™) as described previously (Yang et al., 2009).
# (§3) The protocols for protein extraction have been described previously (Yang et al., 2009). For co-immunoprecipitation, cultured cells were washed with ice-cold PBS followed by incubation with 0.5 ml Gentle Lysis Buffer (GLB) containing 25 mM Tris-HCl (pH 7.4), 2 mM EDTA, 1 mM EGTA, 10 mM NaCl, 0.5% Triton X-100 and 10% Glycerol supplemented with the Complete Protease Inhibitor Tablets (Roche Applied Science™, Indianapolis, Ind., USA) and 1 mM PMSF. Total protein concentration was determined with the BioRad™ Protein Assay kit. Lysates were first precleaned by incubating with Protein A-Sepharose beads (Roche Applied Science™) for 1 h at 4° C., followed by incubation with indicated antibodies (>16 h at 4° C.) and protein A Sepharose bead (2 h at 4° C.). Lysates of rat brain tissues were precleaned with IgG and protein A-beads. Immunoprecipitates were washed three times with GLB buffer; boiled in 2× loading buffer with 1 mM dithiothreitol (DTT) for 3 min; and analyzed with SDS-PAGE as described previously (Yang et al., 2009). The relative intensities of the bands on immunoblots were analyzed and quantified using Image J™ (NIH).
# neuronal cultures = test: LDH assay and PI staining, NMDA excitotoxicity-induced neuronal cell death; type: cell-based, rat; conditions: pretreatment, NMDA challenge 1 h, 24 h survival
# Protocol: as §1
# Neuronal cultures were challenged with indicated concentrations of NMDA for 1 h, followed by 24 h survival. The release of lactate dehydrogenase (LDH) was measured with an in vitro toxicology assay kit (Sigma™) according to the manufacturer's instructions. Spectrophotometric measurement was performed on a Multilabel Plate Reader (Envision™ 2103, Perkin Elmer™). The LDH reading represents the primary absorbance at a wavelength of 490 nm after subtraction of background absorbance at 690 nm. LDH readings were then converted to a percentage of neuronal death by dividing by the readings from cultures incubated with 1% triton for 15 min representing total LDH. Following the LDH assay, propidium iodide (PI) (Sigma™) was added to the medium at a final concentration of 1 μg/ml and neurons were stained for 30 min at 30° C. After fixation with 4% paraformaldehyde, neurons were washed with 1×PBS and stained with Hoechst™ 33342 (Sigma™). The fluorescence of PI and Hoechst™ were examined with laser microscopy and analyzed with ImageJ™.
# JNK3 = target: T1, JNK3 (Rattus norvegicus, UniProt P49187); test: kinase assay (KA) on JNK3 immunoprecipitated from cell lysates; type: cell-based
# T1 construct: cell lysates were prepared and JNK was immunoprecipitated with specific antibodies; endogenous in cells; host or cells: rat primary neuronal cultures; JNK3 immunoprecipitated from lysate
# Protocol: JNK activity was measured with an in vitro kinase assay as described elsewhere (see, for e.g.: Khatlani et al., 2007). Briefly, cell lysates were prepared and JNK was immunoprecipitated with specific antibodies. The immnoprecipitates were then resuspended in 1× kinase buffer (Cell Signaling Technology™) supplemented with 200 μM ATP and 250 μg/ml GST-c-jun (1-89), and incubated at 30° C. for 30 min. Reactions were terminated by the addition of SDS-PAGE sample buffer. Phosphorylated c-jun was resolved by SDS-PAGE and detected with anti-p-c-jun.
# zD17-JNK1 interaction = target: T2, zD17-JNK1 interaction (Rattus norvegicus, UniProt P49185); test: co-immunoprecipitation of zD17 with JNK1 in neuronal cultures; type: cell-based
# T2 construct: endogenous in cells; host or cells: primary cortical neurons of embryonic Wistar rat
# Protocol: as §2
# as §3, with “Lysates were first precleaned by incubating with Protein A-Sepharose beads (Roche Applied Science™) for 1 h at 4° C., followed by incubation with indicated antibodies (>16 h at 4° C.) and protein A Sepharose bead (2 h at 4° C.). Lysates of rat brain tissues were precleaned with IgG and protein A-beads.” left out
# zD17-JNK2 interaction = target: T3, zD17-JNK2 interaction (Rattus norvegicus, UniProt P49186); test: co-immunoprecipitation of zD17 with JNK2 in neuronal cultures; type: cell-based
# T3 construct: endogenous in cells; host or cells: primary cortical neurons of embryonic Wistar rat
# Protocol: as §2, §3
# Sequence of zD17-JNK3 interaction (P49187 whole entry): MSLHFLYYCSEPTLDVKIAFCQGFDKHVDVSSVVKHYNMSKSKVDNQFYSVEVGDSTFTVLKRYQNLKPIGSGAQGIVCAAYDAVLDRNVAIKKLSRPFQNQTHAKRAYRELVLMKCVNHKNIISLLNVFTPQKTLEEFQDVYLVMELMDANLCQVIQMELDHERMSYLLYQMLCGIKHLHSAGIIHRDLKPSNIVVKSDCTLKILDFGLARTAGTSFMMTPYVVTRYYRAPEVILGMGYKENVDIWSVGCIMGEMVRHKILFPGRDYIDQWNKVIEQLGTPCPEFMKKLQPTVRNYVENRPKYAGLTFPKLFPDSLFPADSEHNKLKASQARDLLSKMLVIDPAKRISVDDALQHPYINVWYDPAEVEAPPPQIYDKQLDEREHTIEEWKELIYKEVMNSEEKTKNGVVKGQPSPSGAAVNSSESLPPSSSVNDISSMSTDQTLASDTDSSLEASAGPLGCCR
# T1 sequence (P49187 whole entry): as above
# T3 sequence (P49186 whole entry): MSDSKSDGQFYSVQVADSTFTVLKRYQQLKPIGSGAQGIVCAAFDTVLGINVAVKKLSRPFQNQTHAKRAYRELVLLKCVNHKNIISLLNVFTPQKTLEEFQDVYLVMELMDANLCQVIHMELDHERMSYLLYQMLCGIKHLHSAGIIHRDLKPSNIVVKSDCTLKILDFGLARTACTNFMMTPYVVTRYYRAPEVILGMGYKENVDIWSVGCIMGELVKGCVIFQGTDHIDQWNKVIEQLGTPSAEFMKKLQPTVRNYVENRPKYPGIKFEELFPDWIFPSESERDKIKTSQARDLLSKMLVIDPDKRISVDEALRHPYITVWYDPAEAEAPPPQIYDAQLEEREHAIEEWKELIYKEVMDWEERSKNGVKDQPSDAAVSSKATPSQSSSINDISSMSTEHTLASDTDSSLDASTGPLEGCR
# T2 sequence (P49185 whole entry): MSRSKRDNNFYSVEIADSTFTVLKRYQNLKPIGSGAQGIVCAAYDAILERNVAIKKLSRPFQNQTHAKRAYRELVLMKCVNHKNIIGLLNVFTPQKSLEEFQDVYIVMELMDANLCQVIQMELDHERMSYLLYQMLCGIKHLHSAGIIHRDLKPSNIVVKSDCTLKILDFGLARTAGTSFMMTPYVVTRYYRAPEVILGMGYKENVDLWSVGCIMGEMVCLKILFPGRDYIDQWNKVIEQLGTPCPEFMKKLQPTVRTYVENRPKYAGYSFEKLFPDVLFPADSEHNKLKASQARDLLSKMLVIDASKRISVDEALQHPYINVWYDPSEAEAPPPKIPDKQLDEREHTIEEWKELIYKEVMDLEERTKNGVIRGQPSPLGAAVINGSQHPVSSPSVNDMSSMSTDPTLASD
compound,measurement,setting,value
"Oc1c2ccccc2c2c3c(cccc13)N=N2 [SP600125, reference compound]",axon length,"cultured neurons; SP600125 incubation, control 161.2±3.9",84.9±1.6%
same,axon initiation rate normalized to control,"cultured neurons; incubation of cultured neurons, Tau-1 marker",18.2±4.1%
"CCCCCCCCCCCCCCC(Br)C(=O)O (stereo not drawn) [2-BrPA, 2-bromopalmitate]","zD17-JNK3 interaction (co-immunoprecipitation), baseline",zD17-JNK3 interaction,robustly enhanced
"NVKGESALDLAKQ (listed as Homo sapiens) [DIPep1, control peptide derived from an unrelated region of zD17 (255-267), reference compound]",excitotoxicity-induced cell death as measured by LDH release and PI staining,neuronal cultures,no protective effects
"TPLHWATRGGHLSMV (listed as Homo sapiens) [NIMoD, peptide comprising motif-D of zD17, fused to HIV-1 Tat transduction domain]",JNK3 basal activity,JNK3; neuronal cultures,reduction of JNK3 basal activity
same,"JNK3 basal activity, fold change to control",JNK3; pretreatment of cells 1 μM for 2 h,0.72±0.07 fold
same,"zD17-JNK3 interaction (co-immunoprecipitation), baseline",zD17-JNK3 interaction,significantly diminished
"CN[C@H](CC(=O)O)C(=O)O [NMDA, N-methyl-D-aspartic acid]","zD17 interaction with JNK3, fold increase compared with control",zD17-JNK3 interaction,2.5±0.3 fold
same,"zD17 interaction with JNK1, fold increase compared with control",zD17-JNK1 interaction,1.4±0.1 fold
same,"zD17 interaction with JNK2, fold increase compared with control",zD17-JNK2 interaction,2.1±0.4 fold
"N[C@@H](CCC(=O)O)C(=O)O [Glutamate, glutamate]","zD17 interaction with JNK3, fold increase compared with control",zD17-JNK3 interaction,2.6±0.2 fold
same,"zD17 interaction with JNK1, fold increase compared with control",zD17-JNK1 interaction,1.4±0.1 fold
same,"zD17 interaction with JNK2, fold increase compared with control",zD17-JNK2 interaction,1.7±0.2 fold
IL-1β: cytokine used to induce inflammation stress,fold increase of zD17-JNK3 interaction,"zD17-JNK3 interaction; 10 ng/ml, 16 h",1.88±0.23 fold
TNF-α,fold increase of zD17-JNK3 interaction,"zD17-JNK3 interaction; 50 ng/ml, 6 h",1.53±0.11 fold
"MTPLMWAAYGTGSVGPTRLL (NIMoEmut NIMoE sequence with point mutations on three charged amino acids at positions 10, 12, and 15) [reference compound]",excitotoxicity-induced cell death as measured by LDH release and PI staining,neuronal cultures,no protective effects
same,enhancement of JNK3 activity induced by NMDA,JNK3; neuronal cultures,did not selectively block enhancement
same,enhancement of the zD17-JNK3 interaction induced by NMDA/excitotoxicity,zD17-JNK3 interaction,did not selectively block enhancement
